Results reported in patent US20140328826A1, “PRODUCT AND METHOD FOR TREATING KELOID SCARS, HYPERTROPHIC SCARS AND BURN SCARS WITH CONTRACTURE” (COLE Research & Design, Inc., priority 2013, published 2014).

Tested on: keloid scar
Assay: Intralesional injection of the pharmaceutical composition into keloid scars of patients
Format: in vivo, human
Conditions: injected into the keloid scar; general statement, 'often'
Method: A pharmaceutical composition was prepared by mixing 1.0 mg of high molecular weight hyaluronic acid (0.1 cc of HYALGAN®, sodium hyaluronate) with 7.5 units of hyaluronidase (HYLENEX® recombinant human hyaluronidase), which was injected into the keloid scar. […] Erythema and tenderness of the keloid scar was also resolved.
A pharmaceutical composition was prepared as in Example 1, and injected into the keloid scar.
The patient also reported a sharp, piercing pain from the keloid scar. A pharmaceutical composition was prepared as in Example 1, and injected into the keloid scar.
A fourth patient had two keloid scars, one on each earlobe. A pharmaceutical composition was prepared as in Example 1, and injected into each of the keloid scars. […] Some itching was reported by the patient.
All four patients responded to the treatment. Overall, there was significant reduction in keloid scar size, with an average of approximately a 22% reduction in length, a 37% reduction in width, and a 45% reduction in height. Even more striking was great reduction in density and hardness of the keloid scar tissue, leaving a soft pliable skin sack after treatment.
Only a few mild adverse reactions were reported. Two patients reported very mild itching from the keloid scars. Some stinging from the injection was also reported. No significant pain or swelling was reported.

low molecular weight hyaluronic acid
shrinkage of keloid scar volume: ≥ 50%
